Source: patent US20070021509A1, “Phosphate transport inhibitors” (priority 2001, published 2007)

What follows are compounds tested on phosphate uptake by rabbit intestinal Brush Border Membrane Vesicles (BBMV) (assay: 33PO4 uptake in rabbit intestinal BBMV (HTS), phosphate transporter inhibition in vitro). Conditions: Table 1, phosphate uptake, read-out: IC50.
Type: biochemical
Experimental: The following example outlines the procedures required for in vitro measurement of the inhibition of phosphate uptake by rabbit intestinal Brush Border Membrane Vesicles (BBMV).
Rabbit Intestinal Brush Border Membrane Vesicles (BBMV) were isolated from mucosal scrapings of the upper small intestine (duodenum) of male New Zealand White rabbits. The scrapings were divided into 2 g aliquots in cryopreservation vials, frozen in liquid nitrogen, and stored at −80° C.
The following procedure was performed for each 2 g sample of BBMV mucosal scraping. Buffer volumes and container sizes were adjusted appropriately for the number of 2 g samples used. The entire preparation was performed on ice, unless otherwise stated.
Mucosal scrapings (2 g per tube) were thawed in a 37° C. water bath for 3 minutes and then placed on ice. The scrapings were suspended with a total of 7.5 ml of 300 MET, and transferred to a 250 mL Corning tube on ice. To the suspension was added 30 mL cold (4° C.) deionized water (dH20). The suspension was homogenized with a tissue homogenizer (Polytron) on high speed for 2 minutes. A stir bar and MgCl2 (81.3 mg) was added. The suspension was mixed well by inverting the closed tube. The suspension was stirred on ice, ensuring that a good vortex is achieved with the stir bar, for 40 minutes. The suspension was transferred to a chilled centrifuge tube and spun at 4000×g for 15 minutes. The supernatant was transferred to a new chilled centrifuge tube and spun at 32000×g for 30 minutes. The supernatant was discarded and the pellet was re-suspended with 34 mL cold 60 MET. The suspension was homogenized with a Dounce homogenizer with 8 strokes. The suspension was transferred to a fresh 250 mL Corning tube. A stir bar and 69.1 mg MgCl2 were added. The suspension was stirred well on ice for 10 minutes. The suspension was transferred to a chilled centrifuge tube and spun at 4000×g for 15 minutes. The supernatant was transferred to a new chilled centrifuge tube and spun at 32000×g for 30 minutes. The supernatant was discarded. At this stage, the preparation could be continued or this pellet (P4) could be frozen in liquid nitrogen and stored at −80° C. When needed, this pellet could be allowed to thaw at room temperature for 5 minutes. Continuing the preparation, the pellet was re-suspended with 34 mL cold 280 MH. The suspension was homogenized in a Dounce homogenize with 8 strokes. The suspension was transferred to a new chilled centrifuge tube and spun at 32000×g for 30 minutes. The supernatant was discarded. To the pellet was added 500 μL 280 MH and the pellet was re-suspended very carefully with a 1 mL tuberculin syringe with a 25-gauge needle with care not to create bubbles. Once the entire pellet was suspended, the suspension was transferred to a chilled 1.5 mL microfuge tube. The suspension was evenly dispersed by bringing the suspension up into the syringe through the 25-gauge needle, and back out again 8 times with care not to create bubbles. The total protein concentration was determined by performing a Bradford Protein Assay. Using that value, the BBMV were diluted with 280 MH to reach approximately 0.5-2.0 mg/mL. The solution was used as soon as possible for uptake studies.
The following experiment was performed using a Beckman Multimek 96-tip robotic pipettor. The following outlines the preparation required to screen one 96-well plate of compounds. However, multiple plates could be screened in one experiment.
To the “Uptake Buffers” was added ^33PO4 to reach 200,000 CPM/19 μL. The buffer solutions were stored at room temperature. The following control solutions were prepared and placed into appropriate wells of a polypropylene, 96-well V-bottom plate (“Hot Stock Plate”):
a. Maximum activity (MAX)−Na Uptake buffer+^33PO4 at 200,000 CPM/19 μL
b. Midline activity (MID)−MAX+100 μM KH2PO4, pH 7.4
c. Minimum activity (MIN)− K Uptake buffer+^33PO4 at 200,000 CPM/19 μL

| Structure (SMILES) | IC50 [µM] |
| --- | --- |
| O=C(O)c1cc(Br)ccc1NS(=O)(=O)c1ccc(-c2ccccc2)cc1 [Compound 1] | < 50 |
| O=C(O)c1cc(Br)ccc1NS(=O)(=O)c1ccc(OC(F)(F)F)cc1 [Compound 2] | < 50 |
| O=C(O)c1cc(Br)ccc1NS(=O)(=O)c1cc(C(F)(F)F)cc(C(F)(F)F)c1 [Compound 3] | 51 to 100 |
| O=C(O)c1cc(Br)ccc1NS(=O)(=O)c1cc(Cl)c(Cl)cc1Cl [Compound 4] | 51 to 100 |
| O=C(O)c1cc(Br)ccc1NS(=O)(=O)c1ccc([N+](=O)[O-])cc1 [Compound 5] | 51 to 100 |
| Cc1cc(C)c(S(=O)(=O)Nc2ccc(Br)cc2C(=O)O)c(C)c1 [Compound 6] | 51 to 100 |
| O=C(O)c1cc(Br)ccc1NS(=O)(=O)c1ccc(C(F)(F)F)cc1 [Compound 7] | 51 to 100 |
| O=C(O)c1cc(Br)ccc1NS(=O)(=O)c1ccc(-c2ccccc2)cc1 [Compound 8] | 51 to 100 |
| Cc1ccc(S(=O)(=O)Nc2ccc(Br)cc2C(=O)O)cc1[N+](=O)[O-] [Compound 9] | 51 to 100 |
| O=C(O)c1cc(Br)ccc1NS(=O)(=O)c1cccc(Cl)c1 [Compound 10] | 101 to 500 |
| O=C(O)c1cc(Br)ccc1NS(=O)(=O)c1ccc(Oc2ccccc2)cc1 [Compound 11] | 101 to 500 |
| O=C(O)c1cc(Br)ccc1NS(=O)(=O)c1ccc(Cl)c([N+](=O)[O-])c1 [Compound 12] | 101 to 500 |
| O=C(O)c1cc(Br)ccc1NS(=O)(=O)c1cccc([N+](=O)[O-])c1 [Compound 13] | 101 to 500 |
| O=C(O)c1cc(Br)ccc1NS(=O)(=O)c1ccc(OC(F)(F)F)cc1 [Compound 14] | 101 to 500 |
| O=C(O)c1cc(Br)ccc1NS(=O)(=O)c1ccc(Cl)c([N+](=O)[O-])c1 [Compound 15] | 101 to 500 |
| O=C(O)c1cc(Br)ccc1NS(=O)(=O)c1cccc(C(F)(F)F)c1 [Compound 16] | 101 to 500 |
| O=C(O)c1cc(Br)ccc1NS(=O)(=O)c1ccc(Br)cc1 [Compound 18] | 101 to 500 |
| O=C(O)c1cc(Br)ccc1NS(=O)(=O)c1cccc2ccccc12 [Compound 19] | 101 to 500 |
| Cc1ccc(S(=O)(=O)Nc2ccc(Br)cc2C(=O)O)cc1[N+](=O)[O-] [Compound 20] | 101 to 500 |
| O=C(O)c1cc(Br)ccc1NS(=O)(=O)c1ccc(I)cc1 [Compound 24] | 101 to 500 |
| O=C(O)c1cc(Br)ccc1NS(=O)(=O)c1ccccc1F [Compound 25] | 101 to 500 |

| Structure (SMILES) | IC50 [µM] |
| --- | --- |
| O=C(O)c1cc(Br)ccc1NS(=O)(=O)c1ccccc1C(F)(F)F [Compound 26] | 101 to 500 |
| O=C(O)c1cc(Br)ccc1NS(=O)(=O)c1ccc(Cl)cc1 [Compound 27] | 101 to 500 |
| CCCCCc1ccc(S(=O)(=O)Nc2ccc(Br)cc2C(=O)O)cc1 [Compound 28] | 101 to 500 |
| O=C(O)c1cc(Br)ccc1NS(=O)(=O)c1ccc(Cl)cc1 [Compound 29] | 101 to 500 |
| C=Cc1ccc(S(=O)(=O)Nc2ccc(Br)cc2C(=O)O)cc1 [Compound 30] | 101 to 500 |
| O=C(O)c1cc(Br)ccc1NS(=O)(=O)c1ccccc1Cl [Compound 31] | 101 to 500 |
| O=C(O)c1cc(Br)ccc1NS(=O)(=O)c1ccc([N+](=O)[O-])cc1 [Compound 33] | 101 to 500 |
| O=C(O)c1cc(Br)ccc1NS(=O)(=O)c1cccc(F)c1 [Compound 34] | 101 to 500 |
| COc1ccc(OC)c(S(=O)(=O)Nc2ccc(Br)cc2C(=O)O)c1 [Compound 35] | 101 to 500 |
| COc1ccc(S(=O)(=O)Nc2ccc(Br)cc2C(=O)O)cc1 [Compound 37] | 501 to 1000 |
| O=C(O)c1cc(Br)ccc1NS(=O)(=O)c1ccccc1[N+](=O)[O-] [Compound 38] | 1000 to 1500 |
| O=C(O)c1cc(Br)ccc1NS(=O)(=O)c1ccc(Cl)cc1 [Compound 39] | > 1500 |
| O=C(O)c1cc(Br)ccc1NS(=O)(=O)c1ccc(Cl)c([N+](=O)[O-])c1 [Compound 40] | > 1500 |
| O=C(O)c1cc(Br)ccc1NS(=O)(=O)c1ccc(OC(F)(F)F)cc1 [Compound 41] | > 1500 |
| COc1ccc(S(=O)(=O)Nc2ccc(Br)cc2C(=O)O)cc1[N+](=O)[O-] [Compound 42] | > 1500 |
| O=C(O)c1cc(Br)ccc1NS(=O)(=O)c1ccc(Cl)cc1 [Compound 43] | > 1500 |
| O=C(O)c1cc(Br)ccc1NS(=O)(=O)c1ccc(O)c([N+](=O)[O-])c1 [Compound 44] | > 1500 |
| O=C(O)c1cc(Br)ccc1NS(=O)(=O)c1ccc(Cl)cc1 [Compound 46] | > 1500 |
| O=C(O)c1ccc(S(=O)(=O)Nc2ccc(Br)cc2C(=O)O)cc1 [Compound 47] | > 1500 |
| O=C(O)c1cc(Br)ccc1NS(=O)(=O)c1ccccc1[N+](=O)[O-] [Compound 48] | > 1500 |

Same assay, conditions: Table 2, phosphate uptake, read-out: IC50

| Structure (SMILES) | IC50 [µM] |
| --- | --- |
| O=C(Nc1ccccc1Cl)c1cc(Br)ccc1NS(=O)(=O)c1ccc(OC(F)(F)F)cc1 [Compound 50] | < 50 |
| O=C(Nc1ccc(Br)cc1)c1cc(Br)ccc1NS(=O)(=O)c1ccc(OC(F)(F)F)cc1 [Compound 51] | < 50 |
| O=C(NCc1ccc(F)cc1)c1cc(Br)ccc1NS(=O)(=O)c1ccc(OC(F)(F)F)cc1 [Compound 52] | < 50 |
| O=C(NCc1ccc(Cl)cc1)c1cc(Br)ccc1NS(=O)(=O)c1ccc(OC(F)(F)F)cc1 [Compound 53] | < 50 |
| COc1cccc(CNC(=O)c2cc(Br)ccc2NS(=O)(=O)c2ccc(OC(F)(F)F)cc2)c1 [Compound 54] | < 50 |
| O=C(NCc1ccccc1C(F)(F)F)c1cc(Br)ccc1NS(=O)(=O)c1ccc(OC(F)(F)F)cc1 [Compound 55] | < 50 |
| COc1ccc(NC(=O)c2cc(Br)ccc2NS(=O)(=O)c2ccc(OC(F)(F)F)cc2)cc1 [Compound 56] | 51 to 100 |
| Cc1ccc(NC(=O)c2cc(Br)ccc2NS(=O)(=O)c2ccc(OC(F)(F)F)cc2)cc1 [Compound 57] | 51 to 100 |
| Cc1cccc(CNC(=O)c2cc(Br)ccc2NS(=O)(=O)c2ccc(OC(F)(F)F)cc2)c1 [Compound 58] | 51 to 100 |
| O=C(Nc1ccc(Cl)c(Cl)c1)c1cc(Br)ccc1NS(=O)(=O)c1ccc(OC(F)(F)F)cc1 [Compound 59] | 51 to 100 |
| O=C(NCc1ccc(OC(F)(F)F)cc1)c1cc(Br)ccc1NS(=O)(=O)c1ccc(OC(F)(F)F)cc1 [Compound 60] | 51 to 100 |
| O=C(NCc1ccccc1OC(F)(F)F)c1cc(Br)ccc1NS(=O)(=O)c1ccc(OC(F)(F)F)cc1 [Compound 61] | 51 to 100 |
| O=C(Nc1ccccc1Br)c1cc(Br)ccc1NS(=O)(=O)c1ccc(OC(F)(F)F)cc1 [Compound 62] | 51 to 100 |
| O=C(NCc1ccc(Cl)c(Cl)c1)c1cc(Br)ccc1NS(=O)(=O)c1ccc(OC(F)(F)F)cc1 [Compound 63] | 51 to 100 |
| O=C(NCc1ccc(F)cc1F)c1cc(Br)ccc1NS(=O)(=O)c1ccc(OC(F)(F)F)cc1 [Compound 64] | 51 to 100 |
| CSc1ccc(NC(=O)c2cc(Br)ccc2NS(=O)(=O)c2ccc(OC(F)(F)F)cc2)cc1 [Compound 65] | 51 to 100 |
| O=C(NCc1cc(F)ccc1F)c1cc(Br)ccc1NS(=O)(=O)c1ccc(OC(F)(F)F)cc1 [Compound 66] | 51 to 100 |
| Cc1ccccc1CNC(=O)c1cc(Br)ccc1NS(=O)(=O)c1ccc(OC(F)(F)F)cc1 [Compound 67] | 51 to 100 |
| O=C(Nc1ccccc1-n1cccc1)c1cc(Br)ccc1NS(=O)(=O)c1ccc(OC(F)(F)F)cc1 [Compound 68] | 101 to 500 |
| O=C(NCc1cc(C(F)(F)F)cc(C(F)(F)F)c1)c1cc(Br)ccc1NS(=O)(=O)c1ccc(OC(F)(F)F)cc1 [Compound 69] | 101 to 500 |
| O=C(NCc1ccccc1F)c1cc(Br)ccc1NS(=O)(=O)c1ccc(OC(F)(F)F)cc1 [Compound 70] | 101 to 500 |
| CC(C)(C)c1ccc(NC(=O)c2cc(Br)ccc2NS(=O)(=O)c2ccc(OC(F)(F)F)cc2)cc1 [Compound 71] | 101 to 500 |
